According to patent US20180289637A1, “SUBSTITUTED CYCLOHEXANONES” (CLEXIO BIOSCIENCES LTD., priority 2016, published 2018):

How the values were obtained:
[1] = system: SD male rats; assay: Forced Swim Test (rats), Example 12
[2] = in vivo; cited from earlier work
[3] = Stability of alpha-d2-(R/S)-ketamine in phosphate-buffered saline at various pH levels; assay type: physicochemical
Procedure: Incubations of (d2) (R/S)-ketamine (e.g., 1 μM) with PBS (pH 2.0, 7.4 and 8.4) were carried out using a Tecan Liquid Handling System (Tecan), or equivalent, at 37±1° C. in 0.2-mL incubation mixtures (final volume) containing PBS, at the final concentrations indicated in a 96-well plate format. The test article was added to the incubation mixtures in water. […] Incubations were carried out in triplicate with an exception for zero-time samples (which were incubated in quadruplicate). The samples were centrifuged (e.g., 920×g for 10 min at 10° C.) and the supernatant fractions analyzed by LC-MS/MS. Non-deuterated (d0) (R/S)-ketamine was used as an internal standard. The amount of unchanged test article and formation of non-deuterated (d0) (R/S)-ketamine was monitored based on peak area ratio of the analyte/internal standard.

[4] = system: NMDA receptor; conditions: inhibition of MK-801 binding; cited from earlier work
[5] = system: SD male rats; assay: Forced Swim Test (rats), Example 14; assay type: in vivo
Procedure: The compounds were prepared by a chemist and coded, so the researcher was blinded to the treatment.

[6] = Oral Single Dose PK Study in Rats
Procedure: Male SD rats, 3 per timepoint, alternative timepoints, were used. […] Plasma was sampled at 10 min, 30 min, 1 h, 2 h, 3 h, 4 h, 7 h, 12 h, 24 h, and 30 h. The PK of the parent compound (deuterated and non-deuterated), as well as norketamine (deuterated and non-deuterated), 6-OH-norketamine (deuterated and non-deuterated), and dehydronorketamine (deuterated and non-deuterated) were analyzed.

[7] = system: C57Bl/6 strain mice; assay: Tail Suspension Test (mice), Example 13; conditions: 120 mg/kg oral gavage
[8] = In vitro metabolism in human liver microsomes; conditions: 30 min, 10 μM, listed as d2 S-ketamine
Procedure: (§1) Incubations were initiated by the addition of nicotinamine adenine dinucleotide phosphate (NADPH, 1 mM) and terminated by the addition of methanol. Samples were vortex mixed, stored on ice, and the samples were centrifuged at 1400×g for 5 minutes. Supernatants were removed from the microsome pellets and stored in new tubes at approximately −20° C. until analysis.
(§2) Metabolites generated in microsome incubation samples were characterized by LC-MS/MS using a LTQ Orbitrap XL with electrospray ionization in positive ion mode. Semi-quantitation of the metabolites present in the samples was based on LC MS peak areas of the putative metabolites.

[9] = In vitro metabolism in rat liver microsomes; conditions: 15 min, 10 μM, listed as d2 S-ketamine
Procedure: as §1, §2

[10] = In Vitro Liver Microsomal Stability Assay; conditions: 1 μM, 0.5 mg per mL liver microsomal protein, about 37° C.
Procedure: Test articles were added for a final assay concentration of 1 μM and incubated at about 37° C. Reactions were started by addition of the cofactor, and were stopped at four designated time points (0, 15, 30 and 60 min) by the addition of an equal volume of stop reagent (e.g., acetonitrile containing an internal standard, 0.2 mL). Samples were then centrifuged at 920×g centrifugal force for 10 min at 10° C. to precipitate the proteins. Supernatants were analysed by LC/MS/MS.

[11] = male, SD, rat, plasma, po, 15 mg/kg
[12] = male, SD, rat, plasma, po, 15 mg/kg, AUC0-t of Esketamine (deuterated and non-deuterated), 15 mg/kg p.o., rats
[13] = male, SD, rat, plasma, po, 15 mg/kg, AUC0-t, 15 mg/kg p.o., male SD rats
[14] = male, SD, rat, plasma, po, 60 mg/kg
[15] = male, SD, rat, plasma, po, 60 mg/kg, AUC0-t of Esketamine (deuterated and non-deuterated), 60 mg/kg p.o., rats
[16] = male, SD, rat, plasma, po, 60 mg/kg, AUC0-t, 60 mg/kg p.o., male SD rats

## CNC1(c2ccccc2Cl)CCCCC1=O (racemic) [Ketamine, ketamine, reference compound]
[1]; 30 mg/kg i.p., 30 min before test
  reduction in immobility time by manual counting: 54%
[2]
  elimination half-life: 2 to 3 h

## [2H]C1([2H])CCCC(NC)(c2ccccc2Cl)C1=O (racemic) [d2-ketamine, alpha-d2-(R/S)-ketamine]
[3]; PBS pH 2.0, 37±1° C.
  Mean percent remaining (0 min): 100%
  Mean percent remaining (30 min): 94.6%
  Mean percent remaining (60 min): 98.8%
  Mean percent remaining (120 min): 93.9%
[3]; PBS pH 7.4, 37±1° C.
  Mean percent remaining (0 min): 100%
  Mean percent remaining (30 min): 98.3%
  Mean percent remaining (60 min): 99.0%
  Mean percent remaining (120 min): 96.0%
[3]; PBS pH 8.4, 37±1° C.
  Mean percent remaining (0 min): 100%
  Mean percent remaining (30 min): 96.4%
  Mean percent remaining (60 min): 99.6%
  Mean percent remaining (120 min): 95.1%

## NC1(c2ccccc2Cl)CCCCC1=O (racemic) [norketamine, N-desmethylketamine]
[2]
  elimination half-life: 4 h

## N[C@]1(c2ccccc2Cl)CCCCC1=O [(S)-norketamine]
[4]
  affinity for the NMDA receptor relative to the (R)-enantiomer: 8 times

## CN[C@]1(c2ccccc2Cl)CCCCC1=O [Esketamine, S-ketamine, reference compound]
[5]; 30 mg/kg, 30 min before the test (route printed as orally, i.p. in table)
  reduction in immobility time: 60%
[6]; 15 and 60 mg/kg p.o., rats
  Dehydronorketamine as metabolite (in words): minor metabolite
[6]; [11]
  Cmax: 200 ng/mL
  Tmax: 0.5 h
[6]; [12]
  AUC(0-t): 183 ng·h/mL
[6]; [13]
  AUC(0-t): 183 ng·h/mL
[6]; [14]
  Cmax: 165 ng/mL
[6]; [15]
  AUC(0-t): 498 ng·h/mL
[6]; male, SD, rat, plasma, po, 60 mg/kg, AUC0-t of Esketamine, value in brackets (24 hr time point excluded), 60 mg/kg p.o., rats
  AUC(0-t): 311 ng·h/mL
[6]; [16]
  AUC(0-t): 498 ng·h/mL
[6]; male, SD, rat, plasma, po, 60 mg/kg, AUC0-t, 24 hr time point excluded, 60 mg/kg p.o., 24 hr time point excluded (7 hr was BLQ)
  AUC(0-t): 311 ng·h/mL
[7]
  adverse clinical symptoms: adverse clinical symptoms of vocalization, ataxia and drowsiness
[7]; 20 minutes after the oral gavage
  mortality: One of the animals was found dead

## [2H]C1([2H])CCC[C@](NC)(c2ccccc2Cl)C1=O [Example 1, (2S)-2-(2-chlorophenyl)-6,6-dideuterio-2-[deuterio(methyl)amino]cyclohexanone, deuterium chloride]
[8]
  % Peak Area, component S-ketamine (parent remaining): 33.6%
[1]; 120 mg/kg p.o., 75-90 min after the treatment
  reduction in immobility time: ~25%
[1]; 60 or 120 mg/kg p.o., 75-90 min after the treatment
  antidepressant-like effect on immobility time (in words): dose-response trend
[9]
  % Peak Area, component S-ketamine (parent remaining): 2.6%
[5]; 30 min before the test
  effect at 30 mg/kg (in words): less pronounced compared to the lower dose
[6]; 15 and 60 mg/kg p.o., rats
  6-OH norketamine levels (in words): lower
  Dehydronorketamine as metabolite (in words): minor metabolite
  Norketamine levels as compared to esketamine (in words): higher
[6]; [11]
  Cmax: 136 ng/mL
[6]; [12]
  AUC(0-t): 114 ng·h/mL
[6]; [13]
  AUC(0-t): 114 ng·h/mL
[6]; [14]
  Cmax: 163 ng/mL
[6]; [15]
  AUC(0-t): 268 ng·h/mL
[6]; [16]
  AUC(0-t): 268 ng·h/mL
[6]; single oral administration of 15 or 60 mg/kg, male SD rats, S-ketamine D2 vs S-ketamine
  plasma exposure to the parent compound (in words): essentially unchanged
[7]
  adverse clinical symptoms: adverse clinical symptoms of vocalization, ataxia and drowsiness
[10]
  increase in degradation half-life as compared to non-isotopically enriched ketamine: 18%
